Measurements taken from patent US9789087B2, “PAR4 inhibitor therapy for patients with PAR4 polymorphism” (THOMAS JEFFERSON UNIVERSITY, priority 2015, dated 2017).
Where a chain is given by its changes, count along the chain named. Entries after “also recorded” stand apart in the source; their conditions may differ.

What was measured:
platelets [1] = conditions: cited from earlier work
PAR4-Thr120 = molecular target: T1, PAR4-Thr120 (Homo sapiens, UniProt Q96RI0, A120T); experiment: PAR4-AP-induced platelet aggregation, platelets of PAR4-Thr120 homozygotes; format: cell-based; conditions: homozygous PAR4-Thr120, up to 1 μM YD-3, 100 μM PAR4-AP, FIG. 5C
T1 construct: endogenous in cells; host or cells: washed platelets of human donors homozygous for rs773902 A (Thr120)
T1 sequence (Q96RI0 18-385 A120T): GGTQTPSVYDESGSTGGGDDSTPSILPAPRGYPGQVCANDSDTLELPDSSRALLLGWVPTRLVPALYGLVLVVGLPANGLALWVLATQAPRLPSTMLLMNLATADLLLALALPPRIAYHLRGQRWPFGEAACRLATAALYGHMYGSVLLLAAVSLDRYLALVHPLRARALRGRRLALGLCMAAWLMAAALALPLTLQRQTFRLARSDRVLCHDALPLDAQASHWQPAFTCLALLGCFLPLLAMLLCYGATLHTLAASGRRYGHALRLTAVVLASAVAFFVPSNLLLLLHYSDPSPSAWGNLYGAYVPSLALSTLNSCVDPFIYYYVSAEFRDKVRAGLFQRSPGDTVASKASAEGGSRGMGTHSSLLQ
Procedure: (§1) FIGS. 5A-5C show PAR4 variants are differentially susceptible to pharmacological inhibition. Platelets from donors genotyped for rs773902 were washed, incubated with the indicated concentrations of vorapaxar (VPX) (FIGS. 5A, 5B) or YD-3 (FIG. 5C) and then stimulated with (FIG. 5A) 5 μM PAR1-AP or (FIGS. 5B, 5C) 100 μM PAR4-AP. Aggregation was measured using light transmission aggregometry. n=3 each genotype. Horizontal lines indicate mean. (P=0.02).
(§2) Platelets were pre-incubated with the indicated concentrations of vorapaxar^26 (Axon Medchem, Reston, Va., USA) or YD-3 [1-benzyl-3-(ethoxycarbonylphenyl)-indazole]^7 (a gift from Dr. Craig Lindsley at Vanderbilt University) as previously described.^27 Aggregation was then quantified after stimulation with 5 μM PAR1-AP or 100 μM PAR4-AP.
(§3) Multiple linear regression analysis was performed including the PAR4 protein level and the risk SNPs as explanatory variables and PAR4 reactivity as the dependent variable. To determine fraction of variance of PAR4 reactivity explained by PAR4 protein levels and F2RL3 genotype, PAR4 protein level was brought into the model first followed by rs773902 genotype. To test for an interaction between rs773902 and YD-3, a linear regression was performed, using aggregation as the dependent variable and PAR4-AP concentration, YD3 concentration, and rs773902 genotype as […]. […]

PAR4 [2] = molecular target: T2, PAR4 (Homo sapiens, UniProt Q96RI0); conditions: cited from earlier work
T2 construct: host or cells: platelets (cited work)
T2 sequence (Q96RI0 18-385): T1 sequence (Q96RI0 18-385 A120T) with T103A

PAR4-Ala120 = molecular target: T3, PAR4-Ala120 (Homo sapiens, UniProt Q96RI0); experiment: PAR4-AP-induced platelet aggregation, platelets of PAR4-Ala120 homozygotes; format: cell-based; conditions: 0.5 μM YD-3, 100 μM PAR4-AP, FIG. 5C
T3 construct: endogenous in cells; host or cells: washed platelets of human donors homozygous for rs773902 G (Ala120)
T3 sequence (Q96RI0 18-385): T1 sequence (Q96RI0 18-385 A120T) with T103A
Procedure: as §1, §2, §3

PAR4 [3] = experiment: PAR4-AP-induced platelet aggregation, light transmission aggregometry, donors genotyped for rs773902; format: cell-based, human; conditions: 100 μM PAR4-AP
Procedure: as §1, with “rs773902” left out, “(P=0.02). […] Craig Lindsley at Vanderbilt University) as previously described.^27 Aggregation was then quantified after stimulation with 5 μM PAR1-AP or 100 μM PAR4-AP.” for “(P=0.02).”

platelets [4] = conditions: cited from earlier work; remark: listed apart in the source
smooth muscle cell = conditions: cited from earlier work
[5] = oral, rat carotid balloon injury; cited from earlier work
PAR1 = molecular target: T4, PAR1 (Homo sapiens, UniProt P25116); experiment: PAR1-AP-induced platelet aggregation, light transmission aggregometry; format: cell-based; conditions: washed platelets, 5 μM PAR1-AP, FIG. 5A
T4 construct: endogenous in cells; host or cells: washed platelets of healthy human donors (cohort 2)
T4 sequence (P25116 22-425): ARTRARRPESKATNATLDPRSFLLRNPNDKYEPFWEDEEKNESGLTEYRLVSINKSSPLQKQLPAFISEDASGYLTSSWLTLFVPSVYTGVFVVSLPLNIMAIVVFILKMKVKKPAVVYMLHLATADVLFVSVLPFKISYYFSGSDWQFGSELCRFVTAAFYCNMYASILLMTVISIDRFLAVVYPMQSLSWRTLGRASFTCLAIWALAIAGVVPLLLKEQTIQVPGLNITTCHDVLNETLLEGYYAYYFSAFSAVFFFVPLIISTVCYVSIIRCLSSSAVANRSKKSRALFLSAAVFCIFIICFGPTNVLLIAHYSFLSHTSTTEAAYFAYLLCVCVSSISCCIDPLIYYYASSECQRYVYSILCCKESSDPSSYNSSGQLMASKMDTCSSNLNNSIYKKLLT
Procedure: Platelets from donors genotyped for […] were washed, incubated with the indicated concentrations of vorapaxar (VPX) (FIGS. 5A, 5B) or YD-3 (FIG. 5C) and then stimulated with (FIG. 5A) 5 μM PAR1-AP or (FIGS. 5B, 5C) 100 μM PAR4-AP. Aggregation was measured using light transmission aggregometry. n=3 each genotype. Horizontal lines indicate mean. […] Craig Lindsley at Vanderbilt University) as previously described.^27 Aggregation was then quantified after stimulation with 5 μM PAR1-AP or 100 μM PAR4-AP.

inhibition of platelet aggregation through PAR1 (PAR1) | SMILES | block of neutrophil-induced platelet aggregation (platelets [1]) | inhibition of PAR4-induced platelet aggregation (PAR4-Thr120) | block of PAR4-induced platelet aggregation (PAR4 [2]) | inhibition of PAR4-induced platelet aggregation (PAR4-Ala120) | inhibition of PAR4-induced platelet aggregation (PAR4 [3]; rs773902 heterozygotes, FIG. 5C) | block of thrombin-induced platelet recruitment (platelets [4]) | block of thrombin-induced smooth muscle cell proliferation (smooth muscle cell) | intimal thickening [5] | effect on PAR4-induced platelet aggregation (PAR4 [3]; washed platelets, regardless of rs773902 genotype, FIG. 5B)
– | CCOC(=O)c1ccc(-c2nn(Cc3ccccc3)c3ccccc23)cc1 [YD-3, ethyl 4-(1-benzyl-1H-indazol-3-yl)benzoate] | blocks | resistant | specifically blocks; also recorded: blocking | inhibited | intermediate response | blocks | blocks | attenuates | –
efficiently inhibited | CCOC(=O)N[C@@H]1CC[C@@H]2[C@@H](C1)C[C@H]1C(=O)O[C@H](C)[C@H]1[C@H]2/C=C/c1ccc(-c2cccc(F)c2)cn1 [vorapaxar] | – | – | – | – | – | – | – | – | no effect
